Source: patent US20220409646A1, “MALTOSYL-ISOMALTO-OLIGOSACCHARIDES REDUCE SYMPTOMS OF GASTROESOPHAGEAL REFLUX DISEASE” (ISOThrive Inc., priority 2021, published 2022)

System: subjects with GERD
Conditions: human, in vivo
From the text: The study began in March 2020 when a total of 110 subjects were screened for GERD using stringent eligibility criteria by the study coordinator and the principal investigator. […] The subjects acted as their own controls and there was no placebo arm. All subjects had active symptoms as determined by verbal history and daily ReQuest (RQ) validated GERD questionnaire symptom scores above specified thresholds, or GERD symptoms at four or more days per week.
As of May 2021, 44 subjects had completed the following protocol. […] Symptom evaluation for each included: RQ_GI: acid and abdominal (upper/lower) complaints, nausea; RQ_WSO: general well-being, sleep disturbances, and other complaints; and RQ_TOT: the sum of both. The Short Form 36 Health Survey validated questionnaire (see webpage physio-pedia.com/36-Item_Short_Form_Survey_(SF-36)) was used to assess quality of life. The SF-36 form was completed by subjects on day seven of week zero as well as on each day seven per week during the study duration. The subjects had to report any usage of GERD medications such as PPIs, H2 antagonists, and acids throughout the study, as well as any changes in their other medications. The primary endpoint was tolerability, defined as ending on week four with a request symptom score and a SF-36 score that was at or better than the baseline week zero score (determined as >0% reduction in weekly mean RQ symptom scores as % from baseline to week 4). Statistical analysis was done using the Wilcoxon signed-rank test with multiple comparison correction. In addition, a comparison was made of the number of days without acid complaints per week, or the heartburn-free days per week, for week four compared to the week zero baseline.
It was taken 1 g daily at bedtime.
All subjects had active GERD symptoms as determined by the ReQuest validated GERD specific questionnaire and/or GERD symptoms at least 4 days per week. […] All subjects were screened per the eligibility criteria delineated in this protocol by the study coordinator. The study was done remotely. There was communication but no in person contact or visits with the study coordinator.
Two phases were designed into this study. Phase 1 was the Screening Phase (SP). Phase 2 was the Tolerability Phase (TP). Subjects were instructed to take a daily GERD symptom questionnaire, the ReQuest Short Version, daily throughout the study. At five timepoints, specific scores were established for comparison and statistical analysis.

“maltosyl-isomaltooligosaccharides [ISOT-101]” was tested, and the ISOT-101-related adverse events was “no ISOT-101-related adverse events”, the “nausea, number of patients” value was 2 patients and the “nausea, share of patients” value was 5%. The “subjects who either did not improve or got worse” value was “Five”, the “tolerability (in words)” value was “well tolerated” and the “worsening of RQ_GI (gastrointestinal symptoms), number of subjects” value was 5 of 44. For the same substance, the “worsening of RQ_TOT (total scores), number of subjects” value was 4 of 44 and the “worsening of RQ_TOT (total scores), share of subjects” value was 9%.
